In patent US11046658B2, “Aminopyrazine derivatives as PI3K-γ inhibitors” (Incyte Corporation, priority 2018, dated 2021):
Counter-ions that a name gives are not always drawn. Like-named read-outs stand apart in the source and are kept apart here. Blank lines part the entries; values can stand above or below the compound they belong to.

What was measured:
[1] = target: PI3Kδ (p110δ/p85α) Recombinant Human Protein (Homo sapiens (Human), UniProt O00329); assay: PI3Kδ Scintillation Proximity Assay; assay type: biochemical; conditions: 2 μM ATP, 20 μM PIP2
Description: Materials: [γ-^33P]ATP (10 mCi/mL) and Wheat Germ Agglutinin (WGA) YSi SPA Scintillation Beads was purchased from Perkin Elmer (Waltham, Mass.). Lipid kinase substrate, D-myo-Phosphatidylinositol 4,5-bisphosphate (PtdIns(4,5)P2)D (+)-sn-1,2-di-O-octanoylglyceryl, 3-O-phospho linked (PIP2), CAS 204858-53-7, was purchased from Echelon Biosciences (Salt Lake City, Utah). PI3Kδ (p110δ/p85α) Recombinant Human Protein was purchased from Eurofins (St Charles, Mo.). ATP, MgCl2, DTT, EDTA, MOPS and CHAPS were purchased from Sigma Aldrich (St. Louis, Mo.).
The kinase reaction was conducted in polystyrene 384-well Greiner Bio-one white plate from Thermo Fisher Scientific in a final volume of 25 μL. Inhibitors were first diluted serially in DMSO and added to the plate wells before the addition of other reaction components. The final concentration of DMSO in the assay was 2%. The PI3Kδ assay was carried out at room temperature in 20 mM MOPS, pH 6.7, 10 mM MgCl2, 5 mM DTT and CHAPS 0.03%. Reactions were initiated by the addition of ATP, the final reaction mixture consisted of 20 μM PIP2, 2 μM ATP, 0.5 μCi [γ-^33P] ATP, 3.4 nM PI3Kδ. Reactions were incubated for 120 min and terminated by the addition of 40 μL SPA beads suspended in quench buffer: 163 mM potassium phosphate pH 7.8, 20% glycerol, 25 mM EDTA. The final concentration of SPA beads is 1.0 mg/mL. After the plate sealing, plates were shaken overnight at room temperature and centrifuged at 1500 rpm for 10 min, the radioactivity of the product was determined by scintillation counting on Topcount (PerkinElmer). IC50 determination was performed by fitting the curve of percent of the solvent control activity versus the log of the inhibitor concentration using the GraphPad Prism 6.0 software.

[2] = tested on: Phosphorylated Ribosomal Protein S6 (RPS6) in THP-1 cells; assay: THP-1 RPS6 ELISA Assay; assay type: cell-based, Human; conditions: Homo sapiens
Summary of the method: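 Cells serum-starved overnight, pre-incubated with compounds 2 h at 37° C, then stimulated with 10 nM MCP-1 for 15 min. Lysates assayed for phospho-RPS6 by ELISA read at 450 nm. IC50 from percent inhibition vs log concentration curve fit.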

[3] = Table A1, THP-1 cells, 10 nM MCP-1, read-out: PI3Kγ_THP1_RPS6_ELISA IC50
[4] = Table A3, THP-1 cells, 10 nM MCP-1, read-out: PI3Kγ_THP1_RPS6_ELISA IC50
[5] = Table A4, THP-1 cells, 10 nM MCP-1, read-out: PI3Kγ_THP1_RPS6_ELISA IC50
[6] = Table A4, THP-1 cells, 10 nM MCP-1, cells given with + symbol, read-out: PI3Kγ_THP1_RPS6_ELISA IC50

Chain of PI3Kδ (p110δ/p85α) Recombinant Human Protein (O00329 whole entry): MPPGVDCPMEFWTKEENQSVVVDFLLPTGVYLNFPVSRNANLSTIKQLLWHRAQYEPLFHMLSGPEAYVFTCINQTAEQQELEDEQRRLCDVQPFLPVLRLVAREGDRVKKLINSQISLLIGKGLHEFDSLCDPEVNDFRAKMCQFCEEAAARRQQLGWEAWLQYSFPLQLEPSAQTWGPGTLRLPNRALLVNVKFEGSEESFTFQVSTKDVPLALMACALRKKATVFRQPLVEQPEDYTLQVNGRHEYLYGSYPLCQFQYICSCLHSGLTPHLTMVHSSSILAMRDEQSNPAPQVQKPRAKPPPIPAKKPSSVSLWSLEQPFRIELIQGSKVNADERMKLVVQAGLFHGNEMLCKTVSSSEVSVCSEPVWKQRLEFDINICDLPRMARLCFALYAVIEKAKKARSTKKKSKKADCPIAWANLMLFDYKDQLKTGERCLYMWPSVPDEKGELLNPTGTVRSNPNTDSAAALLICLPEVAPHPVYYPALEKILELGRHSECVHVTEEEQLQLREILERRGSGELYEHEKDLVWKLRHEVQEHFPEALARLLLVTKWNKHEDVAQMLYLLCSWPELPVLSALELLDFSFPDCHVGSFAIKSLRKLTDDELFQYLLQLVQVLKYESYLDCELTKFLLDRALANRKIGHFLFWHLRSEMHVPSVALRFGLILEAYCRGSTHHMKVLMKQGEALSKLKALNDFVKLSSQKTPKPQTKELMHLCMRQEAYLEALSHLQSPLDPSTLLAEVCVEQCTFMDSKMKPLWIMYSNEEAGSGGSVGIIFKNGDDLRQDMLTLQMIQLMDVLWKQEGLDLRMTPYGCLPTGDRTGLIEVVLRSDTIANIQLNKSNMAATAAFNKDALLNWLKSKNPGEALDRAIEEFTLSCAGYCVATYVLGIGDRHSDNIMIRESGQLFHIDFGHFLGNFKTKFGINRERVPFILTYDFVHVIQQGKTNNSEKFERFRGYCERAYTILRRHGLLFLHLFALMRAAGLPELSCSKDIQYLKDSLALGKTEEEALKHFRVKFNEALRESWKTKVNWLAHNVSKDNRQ
Chain of PI3Kδ (p110δ/p85α) Recombinant Human Protein (P27986 whole entry partner): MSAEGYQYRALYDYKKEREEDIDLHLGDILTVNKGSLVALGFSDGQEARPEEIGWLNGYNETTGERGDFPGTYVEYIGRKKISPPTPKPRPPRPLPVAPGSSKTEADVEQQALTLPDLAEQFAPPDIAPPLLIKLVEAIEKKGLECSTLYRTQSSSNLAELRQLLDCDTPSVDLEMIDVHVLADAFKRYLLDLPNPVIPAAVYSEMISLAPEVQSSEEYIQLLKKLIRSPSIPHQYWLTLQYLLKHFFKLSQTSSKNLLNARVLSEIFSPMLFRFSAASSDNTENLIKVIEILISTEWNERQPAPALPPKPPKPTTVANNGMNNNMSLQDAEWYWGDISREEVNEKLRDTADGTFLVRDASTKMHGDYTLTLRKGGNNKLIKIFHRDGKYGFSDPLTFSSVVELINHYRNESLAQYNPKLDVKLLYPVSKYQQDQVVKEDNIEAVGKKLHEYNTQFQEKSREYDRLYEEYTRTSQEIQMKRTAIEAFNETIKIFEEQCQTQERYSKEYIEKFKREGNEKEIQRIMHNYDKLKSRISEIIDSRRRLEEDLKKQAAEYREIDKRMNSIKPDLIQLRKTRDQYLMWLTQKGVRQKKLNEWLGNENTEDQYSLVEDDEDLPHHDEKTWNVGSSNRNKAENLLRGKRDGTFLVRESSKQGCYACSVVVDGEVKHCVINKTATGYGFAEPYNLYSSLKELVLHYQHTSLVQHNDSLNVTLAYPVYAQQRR

IC50 ([1]; Table A1): < 500 nM
IC50 [2, 3]: < 100 nM
Compound: Cc1ccc(C(O)(C(N)=O)C(F)(F)F)cc1-c1cnc(N)c(C(=O)N2CCc3cccnc32)n1 (stereo not shown) [Example 28, 2-(3-(5-amino-6-(2,3-dihydro-1H-pyrrolo[2,3-b]pyridine-1-carbonyl)pyrazin-2-yl)-4-methylphenyl)-3,3,3-trifluoro-2-hydroxypropanamide]

IC50 ([1]; Table A1): < 500 nM
IC50 [2, 3]: > 1000 nM
Compound: Cc1ccc(C(O)(CNC(=O)C(C)(C)O)C(F)(F)F)cc1-c1cnc(N)c(C(=O)NC(C)C)n1 (stereo not shown) [Example 41, 3-Amino-N-isopropyl-6-(2-methyl-5-(1,1,1-trifluoro-2-hydroxy-3-(2-hydroxy-2-methylpropanamido)propan-2-yl)phenyl)pyrazine-2-carboxamide trifluoroacetate]

IC50 ([1]; Table A2): < 500 nM
Compound: Cc1ccc(C(O)(C(N)=O)C(F)(F)F)cc1-c1cnc(N)c(C(F)(F)F)n1 (stereo not shown) [Example 46, 2-(3-(5-Amino-6-(trifluoromethyl)pyrazin-2-yl)-4-methylphenyl)-3,3,3-trifluoro-2-hydroxypropanamide trifluoroacetate]

IC50 ([1]; Table A3): < 500 nM
IC50 [2, 4]: < 100 nM
Compound: CNC(=O)C(O)(c1ccc(C)c(-c2cnc(N)c(-c3cnn(C)c3)n2)c1)C(F)(F)F (stereo not shown) [Example 96, 2-(3-(5-Amino-6-(1-methyl-1H-pyrazol-4-yl)pyrazin-2-yl)-4-methylphenyl)-3,3,3-trifluoro-2-hydroxy-N-methylpropanamide]

IC50 ([1]; Table A3): < 500 nM
IC50 [2, 4]: < 500 nM
Compound: Cc1ccc(C(O)(CNC=O)C(F)(F)F)cc1-c1cnc(N)c(-c2cn[nH]c2)n1 (stereo not shown) [Example 103, N-(2-(3-(5-amino-6-(1H-pyrazol-4-yl)pyrazin-2-yl)-4-methylphenyl)-3,3,3-trifluoro-2-hydroxypropyl)formamide trifluoroacetate]

IC50 ([1]; Table A4): < 500 nM
IC50 [2, 5]: < 500 nM
Compound: Cc1ccc(C(O)(C(N)=O)C(F)(F)F)cc1-c1cnc(N)c(N2CCN(C3CC3)C(=O)C2)n1 (stereo not shown) [Example 112, 2-(3-(5-amino-6-(4-cyclopropyl-3-oxopiperazin-1-yl)pyrazin-2-yl)-4-methylphenyl)-3,3,3-trifluoro-2-hydroxypropanamide trifluoroacetate]

IC50 ([1]; Table A4): < 500 nM
IC50 [2, 5]: < 500 nM
Compound: Cc1ccc(C(O)(C(N)=O)C(F)(F)F)cc1-c1cnc(N)c(N2CCN(C(C)(C)C)C(=O)C2)n1 (stereo not shown) [Example 113, 2-(3-(5-amino-6-(4-tert-butyl-3-oxopiperazin-1-yl)pyrazin-2-yl)-4-methylphenyl)-3,3,3-trifluoro-2-hydroxypropanamide trifluoroacetate]

IC50 ([1]; Table A4): < 500 nM
IC50 [2, 6]: < 100 nM
Compound: Cc1ccc(C(O)(C(N)=O)C(F)(F)F)cc1-c1cnc(N)c(N2CCN(c3ccccc3)CC2)n1 (stereo not shown) [Example 116, 2-(3-(5-amino-6-(4-phenylpiperazin-1-yl)pyrazin-2-yl)-4-methylphenyl)-3,3,3-trifluoro-2-hydroxypropanamide trifluoroacetate]

IC50 ([1]; Table A4): < 500 nM
IC50 [2, 5]: < 1000 nM
Compound: Cc1ccc(C(O)(C(N)=O)C(F)(F)F)cc1-c1cnc(N)c(N2CCN(c3ccccc3C)CC2)n1 (stereo not shown) [Example 118, 2-(3-(5-amino-6-(4-o-tolylpiperazin-1-yl)pyrazin-2-yl)-4-methylphenyl)-3,3,3-trifluoro-2-hydroxypropanamide trifluoroacetate]

IC50 ([1]; Table A4): < 500 nM
IC50 [2, 5]: > 1000 nM
Compound: Cc1ccc(C)c(N2CCN(c3nc(-c4cc(C(O)(C(N)=O)C(F)(F)F)ccc4C)cnc3N)CC2)c1 (stereo not shown) [Example 119, 2-(3-(5-amino-6-(4-(2,5-dimethylphenyl)piperazin-1-yl)pyrazin-2-yl)-4-methylphenyl)-3,3,3-trifluoro-2-hydroxypropanamide trifluoroacetate]

IC50 [2, 6]: < 100 nM
Compound: Cc1ccc(C(O)(C(N)=O)C(F)(F)F)cc1-c1cnc(N)c(N2CCN3C(=O)CCC3C2)n1 (stereo not shown) [Example 126, 2-(3-(5-amino-6-(6-oxohexahydropyrrolo[1,2-a]pyrazin-2(1H)-yl)pyrazin-2-yl)-4-methylphenyl)-3,3,3-trifluoro-2-hydroxypropanamide trifluoroacetate]

The remaining lines, values behind:

Compound: C/C=C\c1nc(-c2cc(C(O)(C(N)=O)C(F)(F)F)ccc2C)cnc1N (stereo not shown) [Example 44, (Z)-2-(3-(5-amino-6-(prop-1-en-1-yl)pyrazin-2-yl)-4-methylphenyl)-3,3,3-trifluoro-2-hydroxypropanamide]
IC50 ([1]; Table A2): < 500 nM

Compound: CCCc1nc(-c2cc(C(O)(C(N)=O)C(F)(F)F)ccc2C)cnc1N (stereo not shown) [Example 45, 2-(3-(5-amino-6-propylpyrazin-2-yl)-4-methylphenyl)-3,3,3-trifluoro-2-hydroxypropanamide]
IC50 ([1]; Table A2): < 500 nM
IC50 ([2]; Table A2, THP-1 cells, 10 nM MCP-1, read-out: PI3Kγ_THP1_RPS6_ELISA IC50): < 500 nM

Compound: CNC(=O)c1ccc(-c2nc(-c3cc(C(O)(C(N)=O)C(F)(F)F)ccc3C)cnc2N)cn1 (stereo not shown) [Example 80, 5-(3-amino-6-(5-(3-amino-1,1,1-trifluoro-2-hydroxy-3-oxopropan-2-yl)-2-methylphenyl)pyrazin-2-yl)-N-methylpicolinamide bistrifluoroacetate]
IC50 ([1]; Table A3): < 500 nM
IC50 [2, 4]: < 1000 nM

Compound: Cc1ccc(C(O)(C(N)=O)C(F)(F)F)cc1-c1cnc(N)c(-c2cncnc2)n1 (stereo not shown) [Example 81, 2-(3-(5-amino-6-(pyrimidin-5-yl)pyrazin-2-yl)-4-methylphenyl)-3,3,3-trifluoro-2-hydroxypropanamide trifluoroacetate]
IC50 ([1]; Table A3): < 500 nM
IC50 [2, 4]: < 500 nM

Compound: Cc1ccc(C(O)(C(N)=O)C(F)(F)F)cc1-c1cnc(N)c(-c2cccc(C(C)C)c2)n1 (stereo not shown) [Example 90, 2-(3-(5-amino-6-(3-isopropylphenyl)pyrazin-2-yl)-4-methylphenyl)-3,3,3-trifluoro-2-hydroxypropanamide trifluoroacetate]
IC50 ([1]; Table A3): < 500 nM
IC50 [2, 4]: < 500 nM

Compound: Cc1ccc(C(O)(C(N)=O)C(F)(F)F)cc1-c1cnc(N)c(-c2ccc(C3CC3)cc2)n1 (stereo not shown) [Example 92, 2-(3-(5-amino-6-(4-cyclopropylphenyl)pyrazin-2-yl)-4-methylphenyl)-3,3,3-trifluoro-2-hydroxypropanamide trifluoroacetate]
IC50 ([1]; Table A3): < 500 nM
IC50 [2, 4]: < 500 nM

Compound: Cc1ccc(C(O)(C(N)=O)C(F)(F)F)cc1-c1cnc(N)c(N2CCN(c3cccc(C(F)(F)F)c3)CC2)n1 (stereo not shown) [Example 121, 2-(3-(5-amino-6-(4-(3-(trifluoromethyl)phenyl)piperazin-1-yl)pyrazin-2-yl)-4-methylphenyl)-3,3,3-trifluoro-2-hydroxypropanamide trifluoroacetate]
IC50 ([1]; Table A4): < 500 nM
IC50 [2, 5]: > 1000 nM

Compound: Cc1ccc(C(O)(C(N)=O)C(F)(F)F)cc1-c1cnc(N)c(N2CC(=O)N(c3ccc(O)cc3)[C@@H](CO)C2)n1 (stereo partly drawn) [Example 124, 2-(3-(5-amino-6-((R)-3-(hydroxymethyl)-4-(4-hydroxyphenyl)-5-oxopiperazin-1-yl)pyrazin-2-yl)-4-methylphenyl)-3,3,3-trifluoro-2-hydroxypropanamide trifluoroacetate]
IC50 ([1]; Table A4): < 500 nM
IC50 [2, 5]: < 1000 nM

Compound: Cc1ccc(C(O)(C(N)=O)C(F)(F)F)cc1-c1cnc(N)c(N2CCN(C(=O)c3ccco3)CC2)n1 (stereo not shown) [Example 127, 2-(3-(5-amino-6-(4-(furan-2-carbonyl)piperazin-1-yl)pyrazin-2-yl)-4-methylphenyl)-3,3,3-trifluoro-2-hydroxypropanamide trifluoroacetate]
IC50 ([2]; THP-1, read-out: PI3Kγ_THP1_RPS6_ELISA IC50 (nM)): < 100 nM

Compound: Cc1ccc(C(O)(C(N)=O)C(F)(F)F)cc1-c1cnc(N)c(N2CCN(c3nccnc3C#N)CC2)n1 (stereo not shown) [Example 128, 2-(3-(5-amino-6-(4-(3-cyanopyrazin-2-yl)piperazin-1-yl)pyrazin-2-yl)-4-methylphenyl)-3,3,3-trifluoro-2-hydroxypropanamide trifluoroacetate]
IC50 [2, 6]: < 100 nM
